# Measured values published in patent US12139520B2 (priority 2020, dated 2024).
# Bridge positions count the residues as written; N and C are the ends. Square brackets hold non-standard residues; d marks the D form. Peptide text beside a SMILES is read from it. Hyp = O=C(O)[C@@H]1C[C@@H](O)CN1; Cit = NC(=O)NCCC[C@H](N)C(=O)O
# Assays:
# [1] = Physical stability of peptide analogues (Thioflavin T fibrillation); type: physicochemical; details: maximum ThT signal normalized between hAMY maximum and buffer background; 40° C., shaking, four days; pH 7 per table title
# Outline: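 Samples are stressed at 40 °C for four days, being shaken at 700 rpm before each 10-min fluorescence reading of 4 μM Thioflavin T. Buffers were pH 4 acetate or pH 7 phosphate. Reported values are smoothed maximum ThT signals as a percentage of the hAMY-to-background range.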
# hAMY3 receptor = target: T1, hAMY3 receptor (Homo sapiens, UniProt O60896+P30988); test: cAMP assay for in vitro receptor activation, hAMY3-R; type: cell-based; details: cAMP assay, hAMY3 receptor; read-out: hAMY3R EC50
# T1 sequence (P30988 25-474): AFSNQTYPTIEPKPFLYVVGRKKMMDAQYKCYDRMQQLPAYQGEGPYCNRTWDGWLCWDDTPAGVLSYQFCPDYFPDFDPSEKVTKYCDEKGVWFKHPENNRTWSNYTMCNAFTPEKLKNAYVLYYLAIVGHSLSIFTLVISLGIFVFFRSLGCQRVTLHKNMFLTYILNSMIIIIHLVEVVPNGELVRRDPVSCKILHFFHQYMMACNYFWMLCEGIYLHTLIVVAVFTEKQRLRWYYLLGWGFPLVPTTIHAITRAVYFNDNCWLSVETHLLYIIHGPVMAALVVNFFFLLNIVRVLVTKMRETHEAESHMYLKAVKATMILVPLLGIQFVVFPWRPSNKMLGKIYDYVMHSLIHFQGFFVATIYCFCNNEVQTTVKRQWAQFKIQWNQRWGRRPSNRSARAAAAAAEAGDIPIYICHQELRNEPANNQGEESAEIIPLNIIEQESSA
# T1 sequence (O60896 24-148 partner): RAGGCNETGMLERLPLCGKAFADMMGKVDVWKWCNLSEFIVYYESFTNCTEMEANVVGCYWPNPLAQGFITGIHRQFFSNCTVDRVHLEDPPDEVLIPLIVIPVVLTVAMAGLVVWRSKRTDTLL
# Outline: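 Accumulated cAMP was detected by time-resolved FRET one hour after reagent addition. Beforehand, hAMY3-R-overexpressing monoclonal cells (2000/well, DPBS, 0.05% casein, 0.5 mM IBMX) received graded doses of compound for 30 min at room temperature; human amylin served as positive control.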
Structure (SMILES),Max ThT signal (%) [1],EC50 (hAMY3 receptor)
CC[C@H](C)[C@H](NC(=O)[C@H](CCC(N)=O)NC(=O)[C@H](Cc1c[nH]cn1)NC(=O)[C@H](C)NC(=O)[C@H](CC(C)C)NC(=O)[C@H](CCCNC(=N)N)NC(=O)[C@H](CCC(N)=O)NC(=O)[C@@H](NC(=O)[C@@H](NC(=O)[C@@H]1CSSC[C@H](NC(=O)CN)C(=O)N[C@@H](CCCNC(=N)N)C(=O)N[C@@H](Cc2ccccc2)C(=O)NCC(=O)N[C@@H]([C@@H](C)O)C(=O)N1)[C@@H](C)O)C(C)C)C(=O)N[C@@H](Cc1ccc(O)cc1)C(=O)N[C@@H](CCC(N)=O)C(=O)N[C@@H](Cc1ccccc1)C(=O)N[C@H](C(=O)N[C@@H](CC(=O)O)C(=O)N[C@@H](CCCCN)C(=O)N[C@@H](CC(=O)O)C(=O)N[C@@H](CCCCN)C(=O)N[C@@H](CC(=O)O)C(=O)N[C@@H](CC(N)=O)C(=O)N[C@H](C(=O)N[C@@H](C)C(=O)N1CCC[C@H]1C(=O)N[C@@H](CCCNC(=N)N)C(=O)N[C@H](C(=O)N[C@@H](CCCCN)C(=O)N[C@H](C(=O)N[C@@H](CO)C(=O)N1CCC[C@H]1C(=O)N[C@@H](CC(N)=O)C(=O)NCC(=O)N1C[C@H](O)C[C@H]1C(N)=O)C(C)C)[C@@H](C)O)C(C)C)[C@@H](C)O [compound 134] (H-GCRFGTCTVQRLAHQIYQFTDKDKDNVAPRTKVSPNG[Hyp]-NH2; disulfide 2-7; N-terminus assumed),17.400%,0.032 nM
CC[C@H](C)[C@H](NC(=O)[C@H](CCC(N)=O)NC(=O)[C@H](Cc1c[nH]cn1)NC(=O)[C@H](C)NC(=O)[C@H](CC(C)C)NC(=O)[C@H](CCCNC(=N)N)NC(=O)[C@H](CCC(N)=O)NC(=O)[C@@H](NC(=O)[C@@H](NC(=O)[C@@H]1CSSC[C@H](NC(=O)CN)C(=O)N[C@@H](CCCNC(=N)N)C(=O)N[C@@H](Cc2ccccc2)C(=O)NCC(=O)N[C@@H]([C@@H](C)O)C(=O)N1)[C@@H](C)O)C(C)C)C(=O)N[C@@H](Cc1ccc(O)cc1)C(=O)N[C@@H](CCC(N)=O)C(=O)N[C@@H](Cc1ccccc1)C(=O)N[C@H](C(=O)N[C@@H](CC(=O)O)C(=O)N[C@@H](CCCCN)C(=O)N[C@@H](CC(=O)O)C(=O)N[C@@H](CCCCN)C(=O)N[C@@H](CC(=O)O)C(=O)N[C@@H](CC(N)=O)C(=O)N[C@H](C(=O)N[C@@H](C)C(=O)N1CCC[C@H]1C(=O)N[C@@H](CCCNC(=N)N)C(=O)N[C@H](C(=O)N[C@@H](CC(N)=O)C(=O)N[C@H](C(=O)NCC(=O)N1CCC[C@H]1C(=O)N[C@@H](CCC(N)=O)C(=O)NCC(=O)N[C@@H](Cc1ccc(O)cc1)C(N)=O)C(C)C)[C@@H](C)O)C(C)C)[C@@H](C)O [compound 362] (H-GCRFGTCTVQRLAHQIYQFTDKDKDNVAPRTNVGPQGY-NH2; disulfide 2-7),8.900%,0.007 nM
CC[C@H](C)[C@H](NC(=O)[C@H](CC(N)=O)NC(=O)[C@@H](NC(=O)[C@H](CCCNC(=N)N)NC(=O)[C@@H]1CCCN1C(=O)[C@H](C)NC(=O)[C@@H](NC(=O)[C@H](CC(N)=O)NC(=O)[C@H](CC(=O)O)NC(=O)[C@H](CCCCN)NC(=O)[C@H](CC(=O)O)NC(=O)[C@H](CCCCN)NC(=O)[C@H](CC(=O)O)NC(=O)[C@@H](NC(=O)[C@H](Cc1ccccc1)NC(=O)[C@H](CCC(N)=O)NC(=O)[C@H](Cc1ccc(O)cc1)NC(=O)[C@@H](NC(=O)[C@H](CCC(N)=O)NC(=O)[C@H](Cc1c[nH]cn1)NC(=O)[C@H](C)NC(=O)[C@H](CC(C)C)NC(=O)[C@H](CCCNC(=N)N)NC(=O)[C@H](CCC(N)=O)NC(=O)[C@@H](NC(=O)[C@@H](NC(=O)[C@@H]1CSSC[C@H](NC(=O)CN)C(=O)N[C@@H](CCCNC(=N)N)C(=O)N[C@@H](Cc2ccccc2)C(=O)NCC(=O)N[C@@H]([C@@H](C)O)C(=O)N1)[C@@H](C)O)C(C)C)[C@@H](C)CC)[C@@H](C)O)C(C)C)[C@@H](C)O)C(=O)NCC(=O)N1CCC[C@H]1C(=O)N[C@@H](CC(N)=O)C(=O)NCC(=O)N1C[C@H](O)C[C@H]1C(N)=O [compound 81] (H-GCRFGTCTVQRLAHQIYQFTDKDKDNVAPRTNIGPNG[Hyp]-NH2; disulfide 2-7; N-terminus assumed),4.000%,0.015 nM
CC[C@H](C)[C@H](NC(=O)[C@H](CC(N)=O)NC(=O)[C@@H](NC(=O)[C@H](CCCNC(=N)N)NC(=O)[C@@H]1CCCN1C(=O)[C@H](C)NC(=O)[C@@H](NC(=O)[C@H](CC(N)=O)NC(=O)[C@H](CC(=O)O)NC(=O)[C@H](CCCCN)NC(=O)[C@H](CC(=O)O)NC(=O)[C@H](CCCCN)NC(=O)[C@H](CC(=O)O)NC(=O)[C@@H](NC(=O)[C@H](Cc1ccccc1)NC(=O)[C@H](CCC(N)=O)NC(=O)[C@H](Cc1ccc(O)cc1)NC(=O)[C@@H](NC(=O)[C@H](CCC(N)=O)NC(=O)[C@H](Cc1c[nH]cn1)NC(=O)[C@H](C)NC(=O)[C@H](CC(C)C)NC(=O)[C@H](CCCNC(N)=O)NC(=O)[C@H](CCC(N)=O)NC(=O)[C@@H](NC(=O)[C@@H](NC(=O)[C@@H]1CSSC[C@H](NC(=O)CN)C(=O)N[C@@H](CCCNC(=N)N)C(=O)N[C@@H](Cc2ccccc2)C(=O)NCC(=O)N[C@@H]([C@@H](C)O)C(=O)N1)[C@@H](C)O)C(C)C)[C@@H](C)CC)[C@@H](C)O)C(C)C)[C@@H](C)O)C(=O)NCC(=O)N1CCC[C@H]1C(=O)N[C@@H](CCC(N)=O)C(=O)NCC(=O)N1C[C@H](O)C[C@H]1C(N)=O [compound 260] (H-GCRFGTCTVQ[Cit]LAHQIYQFTDKDKDNVAPRTNIGPQG[Hyp]-NH2; disulfide 2-7; N-terminus assumed),34.100%,0.011 nM

# The remaining compounds from weak to strong by EC50 (hAMY3 receptor), led by results:
Max ThT signal (%) [1],EC50 (hAMY3 receptor),Structure (SMILES)
1.800%,0.064 nM,CC[C@H](C)[C@H](NC(=O)[C@H](CCC(N)=O)NC(=O)[C@H](Cc1c[nH]cn1)NC(=O)[C@H](C)NC(=O)[C@H](CC(C)C)NC(=O)[C@H](CCCNC(=N)N)NC(=O)[C@H](CCC(N)=O)NC(=O)[C@@H](NC(=O)[C@@H](NC(=O)[C@@H]1CSSC[C@H](NC(=O)CN)C(=O)N[C@@H](CCCNC(=N)N)C(=O)N[C@@H]([C@@H](C)O)C(=O)NCC(=O)N[C@@H]([C@@H](C)O)C(=O)N1)[C@@H](C)O)C(C)C)C(=O)N[C@@H](Cc1ccc(O)cc1)C(=O)N[C@@H](CCC(N)=O)C(=O)N[C@@H](Cc1ccccc1)C(=O)N[C@H](C(=O)N[C@@H](CC(=O)O)C(=O)N[C@@H](CCCCN)C(=O)N[C@@H](CC(=O)O)C(=O)N[C@@H](CCCCN)C(=O)N[C@@H](CC(=O)O)C(=O)N[C@@H](CC(N)=O)C(=O)N[C@H](C(=O)N[C@@H](C)C(=O)N1CCC[C@H]1C(=O)N[C@@H](CCCNC(=N)N)C(=O)N[C@H](C(=O)N[C@@H](CC(N)=O)C(=O)N[C@H](C(=O)N[C@@H](CO)C(=O)N1CCC[C@H]1C(=O)N[C@@H](CC(N)=O)C(=O)NCC(=O)N1C[C@H](O)C[C@H]1C(N)=O)[C@@H](C)CC)[C@@H](C)O)C(C)C)[C@@H](C)O [compound 170] (H-GCRTGTCTVQRLAHQIYQFTDKDKDNVAPRTNISPNG[Hyp]-NH2; disulfide 2-7)
5.100%,0.04 nM,CC[C@H](C)[C@@H]1NC(=O)[C@H](CCCNC(=N)N)NC(=O)[C@@H](NC(=O)CN)CSSC[C@@H](C(=O)N[C@H](C(=O)N[C@H](C(=O)N[C@@H](CCC(N)=O)C(=O)N[C@@H](CCCNC(=N)N)C(=O)N[C@@H](CC(C)C)C(=O)N[C@@H](C)C(=O)N[C@@H](Cc2c[nH]cn2)C(=O)N[C@@H](CCC(N)=O)C(=O)N[C@H](C(=O)N[C@@H](Cc2ccc(O)cc2)C(=O)N[C@@H](CCC(N)=O)C(=O)N[C@@H](Cc2ccccc2)C(=O)N[C@H](C(=O)N[C@@H](CC(=O)O)C(=O)N[C@@H](CCCCN)C(=O)N[C@@H](Cc2ccccc2)C(=O)N[C@@H](CCCCN)C(=O)N[C@@H](CC(=O)O)C(=O)N[C@@H](CC(N)=O)C(=O)N[C@H](C(=O)N[C@@H](C)C(=O)N2CCC[C@H]2C(=O)N[C@@H](CCCNC(=N)N)C(=O)N[C@@H](CO)C(=O)N[C@@H](CCCCN)C(=O)N[C@H](C(=O)N[C@@H](CO)C(=O)N2CCC[C@H]2C(=O)N[C@@H](CCC(N)=O)C(=O)N[C@H](C(=O)N2C[C@H](O)C[C@H]2C(N)=O)[C@@H](C)O)[C@@H](C)CC)C(C)C)[C@@H](C)O)[C@@H](C)CC)C(C)C)[C@@H](C)O)NC(=O)[C@H]([C@@H](C)O)NC(=O)CNC1=O [compound 147] (H-GCRIGTCTVQRLAHQIYQFTDKFKDNVAPRSKISPQT[Hyp]-NH2; disulfide 2-7; N-terminus assumed)
